From PubChem BioAssay AID1963981 (Molecular Pharmacology Branch, DTP, NCI, 2024) come the findings set out here.

Several values for one entry are separate records, joined by “and”; a condition that tells them apart may be missing. Equal values may be shown once. Some results are limits rather than exact numbers.

The subject of the experiment is 354836-022-R-J1-PDC multicell spheroid viability. Briefly: Anticancer human tumor 354836-022-R-J1-PDC patient-derived head and neck squamous cell carcinoma cell line growth inhibition [PI3K]. Particulars: for viability, T/C: stronger effect = lower value. The text has this:
Combinatorial screen of targeted agents with the PI3K inhibitors inavolisib, alpelisib, duvelisib, and copanlisib in multi-cell type tumor spheroids
A high-throughput screen of multi-cell type tumor spheroids was designed to identify active combinations of targeted small molecules and PI3K pathway inhibitors. Complex spheroids include a stromal component modeled by human endothelial cells (HUVEC) and fibroblasts modeled by human mesenchymal stem cells (MSCs). The concentration ranges selected for each drug and investigational agent were based upon clinically achievable concentrations if the clinical Cmax of the agent was known.
Compounds. The drugs and investigational agents: inavolisib (NSC800729), alpelisib (NSC765974), duvelisib (NSC772469), copanlisib (NSC816437), ipatasertib (NSC767898), afuresertib (NSC778305), talazoparib (NSC767125), sapanisertib (NSC764658), selumetinib (NSC741078), tovorafenib (DAY101, NSC766906), vemurafenib (NSC761431), ravoxertinib (NSC781343), sotorasib (NSC818433), MRTX1133 (NSC 836407), abemaciclib (NSC 768073), palbociclib (NSC758247), venetoclax (NSC 766270), SY5609 (NSC837396), enzalutamide (NSC755605), and darolutamide (NSC825331), were obtained from the National Cancer Institute (NCI) Developmental Therapeutics Program Chemical Repository. The FDA-approved anticancer drug set is available from the NCI Developmental Therapeutics Program. […] The stock solutions were prepared in dimethyl sulfoxide (DMSO, Sigma-Aldrich, St. Louis, MO, cat. D2650) at 800-fold the tested concentration and stored at -70 degrees C prior to their use. All drugs and investigational agents were tested over a range starting from a high concentration at or near the clinical Cmax and decreasing in half-log increments. If the clinical Cmax for an agent had not been determined, the highest concentration tested was 10 microM.
Cell Culture. All cells were maintained in an incubator at 37 degrees C and 5% CO2 with 95% humidity. The PDC lines were cultured according to standard operating procedures established by the NCI PDMR (https://pdmr.cancer.gov/sops/default.htm). All PDCs were thawed and cultured in Matrigel-coated flasks prepared with a working solution of 1X Ham's F-12 nutrient mix, without supplementation (Invitrogen, Waltham, MA, cat. 11765054), 100 U/mL penicillin-streptomycin (Invitrogen, cat. 15140122), and 2.5% Matrigel (Corning Inc., Corning, NY, cat. 354248) for the first three passages. The 354836-022-R-J1-PDC, 475296-252-R-J1-PDC, and 997726-040-R-J2-PDC lines were cultured in 6A media, which includes advanced DMEM/F-12 (Thermo Fisher Scientific, cat. 12634028), 10 mM HEPES (Thermo Fisher Scientific, cat. 15630080), 1X GlutaMAX supplement (Thermo Fisher Scientific, cat. 35050061), 0.1 mg/mL primocin (InvivoGen, San Diego, CA, cat. ant-pm-2), 10% defined fetal bovine serum, heat inactivated (HyClone Laboratories Inc., Logan, UT, cat. SH30070.03HI), 50% L-WRN conditioned media (ATCC, cat. CRL-3276), 1.25 mM N-Acetyl-L-cysteine (Sigma-Aldrich, cat. A9165), 10 mM nicotinamide (Sigma-Aldrich, cat. N0636), 1X B-27 supplement (Thermo Fisher Scientific, cat. 17504044), 1X N-2 supplement (Thermo Fisher Scientific, cat. 17502048), and 10 microM Y-27632 dihydrochloride (Tocris Bioscience, Bristol, United Kingdom, cat. 1254). The 624824-186-R-J2-PDC line was cultured in 6C/Colon 1B media, which includes all 6A media components plus 50 ng/mL human EGF recombinant protein (Thermo Fisher Scientific, cat. PHG0311). […]

[1] abbreviates: compound alone, run of 06/12/2023.
The mark [2] stands for this setting: compound alone, run of 06/13/2023.
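Note: spheroids exposed to agents for seven days before the viability read.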

One may read the viability, T/C as the result in the treated group divided by that in the control group, in per cent. By IC50 is commonly meant the point on the concentration scale where inhibition reaches its midpoint. Consider `CC(=O)c1c(C)c2cnc(Nc3ccc(N4CCNCC4)cn3)nc2n(C2CCCC2)c1=O`, for which the viability, T/C (compound 0.000316 µM) was 105% (2×) and 101% and 106%; the viability, T/C (compound 0.001 µM) is 104% [middle of 4 runs]; the viability, T/C (compound 0.00316 µM) is 105% [middle of 4 runs]; the viability, T/C (compound 0.01 µM) was 102% [middle of 4 runs]; the viability, T/C (compound 0.0316 µM) was 103% [middle of 4 runs]; the viability, T/C (compound 0.1 µM) was 104% [middle of 4 runs]. For the same molecule, the IC50 (curve of compound) was > 100 nM.

For `CC(C)NCC(C(=O)N1CCN(c2ncnc3c2C(C)CC3O)CC1)c1ccc(Cl)cc1` (stereo not given), the viability, T/C was 96.5% [middle of 4 runs] (compound 0.0316 µM); 71% [middle of 4 runs] (compound 0.1 µM); 54.1% [middle of 4 runs] (compound 0.316 µM); 24.7% [middle of 4 runs] (compound 1 µM); 18% [middle of 4 runs] (compound 3.16 µM); 14.2% [middle of 4 runs] (compound 10 µM). Also, the concentration for half-maximal inhibition (IC50) (curve of compound) is 319 nM [middle of 4 runs].

On to `CC(C)n1nc(-c2ccc3oc(N)nc3c2)c2c(N)ncnc21`, for which the viability, T/C reads like this: (compound 0.000316 µM) 92.8% [middle of 4 runs]; (compound 0.001 µM) 84.9% [middle of 4 runs]; (compound 0.00316 µM) 78.9% [middle of 4 runs]; (compound 0.01 µM) 52% [middle of 4 runs]; (compound 0.0316 µM) 28.9% [middle of 4 runs]; (compound 0.1 µM) 11.4% [middle of 4 runs]. Further, the IC50 (curve of compound) is 9.59 nM and 12 nM and 11.8 nM.

Turning to `CC(Cn1ccc(-c2ccc(C#N)c(Cl)c2)n1)NC(=O)c1cc(C(C)O)[nH]n1` (stereo not given), the viability, T/C is 108% [middle of 4 runs] (compound 0.0316 µM); 95.5% [middle of 4 runs] (compound 0.1 µM); 112% [middle of 4 runs] (compound 0.316 µM); 93.7% [middle of 4 runs] (compound 1 µM); 99.2% [middle of 4 runs] (compound 3.16 µM); 77.8% [middle of 4 runs] (compound 10 µM). Besides, the half-maximal inhibitory concentration (IC50) (curve of compound) was > 10000 nM.

Turning to `CC(Nc1ccc2c(c1)OCCn1cc(N3C(=O)OCC3C(F)F)nc1-2)C(N)=O` (stereo not given), the viability, T/C by setting is: (compound 0.00316 µM) 99.7% [middle of 8 runs]; (compound 0.01 µM) 96.8% [middle of 8 runs]; (compound 0.0316 µM) 99.1% [middle of 8 runs]; (compound 0.1 µM) 87.8% [middle of 7 runs]; (compound 0.316 µM) 76.5% [middle of 8 runs]; (compound 1 µM) 53.6% [middle of 8 runs]. Also, the IC50 under setting [1] is > 1000 nM.

`CC(Nc1ncnc2nc[nH]c12)c1cc2cccc(Cl)c2c(=O)n1-c1ccccc1` (stereo not given): the viability, T/C runs as follows: (compound 0.0316 µM) 101% [middle of 8 runs]; (compound 0.1 µM) 104% [middle of 8 runs]; (compound 0.316 µM) 99.3% [middle of 8 runs]; (compound 1 µM) 97.6% [middle of 8 runs]; (compound 3.16 µM) 92.8% [middle of 8 runs]; (compound 10 µM) 94.6% [middle of 8 runs]. Moreover, under setting [2], the IC50 was > 10000 nM.

As to `CC1(C)CCC(CN2CCN(c3ccc(C(=O)NS(=O)(=O)c4ccc(NCC5CCOCC5)c([N+](=O)[O-])c4)c(Oc4cnc5[nH]ccc5c4)c3)CC2)=C(c2ccc(Cl)cc2)C1`, the viability, T/C is, setting by setting: (compound 0.0316 µM) 104% [middle of 4 runs]; (compound 0.316 µM) 102% [middle of 4 runs]; (compound 1 µM) 82.2% [middle of 4 runs]; (compound 3.16 µM) 72.4% [middle of 4 runs].

On to `CCN1CCN(Cc2ccc(Nc3ncc(F)c(-c4cc(F)c5nc(C)n(C(C)C)c5c4)n3)nc2)CC1`, for which the viability, T/C is, setting by setting: (compound 0.00316 µM) 111% [middle of 4 runs]; (compound 0.01 µM) 94.4% [middle of 4 runs]; (compound 0.0316 µM) 98.2% [middle of 4 runs]; (compound 0.1 µM) 90% and 99.5% and 87.3% (2×); (compound 0.316 µM) 94% [middle of 4 runs]. The IC50 (curve of compound) was > 1000 nM and 830 nM.

In the case of `CNC(=O)c1ccc(N2C(=S)N(c3ccc(C#N)c(C(F)(F)F)c3)C(=O)C2(C)C)cc1F`, the viability, T/C is, setting by setting: (compound 0.0316 µM) 106% [middle of 4 runs]; (compound 0.1 µM) 102% [middle of 4 runs]; (compound 0.316 µM) 96.3% and 107% (2×) and 116%; (compound 1 µM) 100% [middle of 4 runs]; (compound 3.16 µM) 99.1% and 122% and 104% (2×); (compound 10 µM) 96.7% [middle of 4 runs]. For the setting “curve of compound”, the IC50 is > 10000 nM.

Consider `COc1c(OCCCN2CCOCC2)ccc2c3n(c(=NC(=O)c4cnc(N)nc4)nc12)CCN3`, for which the viability, T/C reads like this: (compound 0.00316 µM) 106% [middle of 8 runs]; (compound 0.01 µM) 97.6% [middle of 8 runs]; (compound 0.0316 µM) 82.5% [middle of 8 runs]; (compound 0.1 µM) 50.2% [middle of 8 runs]; (compound 0.316 µM) 11.2% [middle of 8 runs]; (compound 1 µM) 1.63% [middle of 8 runs]. The IC50 under setting [2] is 91.2 nM [middle of 8 runs].

Take `C[C@@H](NC(=O)c1ncnc(N)c1Cl)c1ncc(C(=O)Nc2cc(C(F)(F)F)c(Cl)cn2)s1`: the viability, T/C by setting is: (compound 0.0316 µM) 105% [middle of 4 runs]; (compound 0.1 µM) 99.9% [middle of 4 runs]; (compound 0.316 µM) 99.3% [middle of 4 runs]; (compound 1 µM) 98.5% [middle of 4 runs]; (compound 3.16 µM) 105% [middle of 4 runs]; (compound 10 µM) 70.9% [middle of 4 runs]. For the same molecule, the 50% inhibitory concentration (IC50) (curve of compound) was > 10000 nM.

Take `Cc1nc(NC(=O)N2CCCC2C(N)=O)sc1-c1ccnc(C(C)(C)C(F)(F)F)c1` (stereo not given): the viability, T/C (compound 0.0316 µM) is 103% [middle of 8 runs]; the viability, T/C (compound 0.1 µM) is 100% [middle of 8 runs]; the viability, T/C (compound 1 µM) was 78.3% [middle of 8 runs]; the viability, T/C (compound 3.16 µM) was 59.7% [middle of 8 runs]; the viability, T/C (compound 10 µM) was 30.9% [middle of 8 runs]. In addition, the IC50 under setting [1] was 4.49 µM [middle of 8 runs].

As to `Cn1cnc2c(F)c(Nc3ccc(Br)cc3Cl)c(C(=O)NOCCO)cc21`, the viability, T/C (compound 0.00949 µM) was 90% [middle of 4 runs]; the viability, T/C (compound 0.03 µM) is 85.5% [middle of 4 runs]; the viability, T/C (compound 0.0949 µM) was 91.4% [middle of 4 runs]; the viability, T/C (compound 0.3 µM) is 74.8% [middle of 4 runs]; the viability, T/C (compound 0.949 µM) was 80.2% [middle of 4 runs]; the viability, T/C (compound 3 µM) is 58.4% [middle of 4 runs]. Moreover, the concentration for half-maximal inhibition (IC50) (curve of compound) was > 3000 nM.

With `Cn1nccc1Nc1nccc(-c2ccn(C(CO)c3ccc(Cl)c(F)c3)c(=O)c2)n1` (stereo not given), the viability, T/C was 107% [middle of 4 runs] (compound 0.0316 µM); 91.8% [middle of 4 runs] (compound 0.1 µM); 110% [middle of 4 runs] (compound 0.316 µM); 94.6% [middle of 4 runs] (compound 1 µM); 106% [middle of 4 runs] (compound 3.16 µM); 96.2% [middle of 4 runs] (compound 10 µM). Besides, the 50% inhibitory concentration (IC50) (curve of compound) is > 10000 nM.

Take `Cn1ncnc1[C@H]1c2n[nH]c(=O)c3cc(F)cc(c23)N[C@@H]1c1ccc(F)cc1`: the viability, T/C was 101% [middle of 4 runs] (compound 0.000316 µM); 100% [middle of 4 runs] (compound 0.001 µM); 98.7% [middle of 4 runs] (compound 0.00316 µM); 92.5% [middle of 4 runs] (compound 0.01 µM); 96.4% [middle of 4 runs] (compound 0.0316 µM); 92.1% [middle of 4 runs] (compound 0.1 µM). Further, for the setting “curve of compound”, the IC50 is > 100 nM.
